Where two headings read alike, the source gives them in different places.
Legend:
[1] = design: method as in PMID 9598455; details: simulated gastric fluid; cited from earlier work
[2] = Liver tissue distribution pharmacokinetics after single intravenous or intragastric dose; format: in vivo, male ICR mice; details: for Kp: liver/plasma, read-out: AUCinf ratio (liver/plasma); for half-life: read-out: t1/2 elimination (converted)
Procedure: PK studies were performed using both intravenous (IV) and intragastric (IG) administration. For each time point to be acquired, three male ICR mice per time-point, aged seven weeks, were dosed at either PQ or TQ at 5 mg/kg (IV) or 20 mg/kg (IG). Drug vehicle for IV studies was 0.9% saline solution, and the formulated drugs were administered in a volume of 100 μL/20 g of body weight. For IG dosing, the drug vehicle was 0.5% HECT, administered at 100 μL/20 g. At each time point, plasma and liver samples were collected. Whole blood was collected by cardiac puncture. […] Following the separation of appropriate aliquots, plasma was obtained from the whole blood via centrifugation. All liquid and tissue samples were immediately preserved on dry ice and lately stored at -80°C until analytical work was performed.
Blank liver homogenate was prepared by adding 5 mL of water for each gram of liver, then the mixture was homogenized using an ultra-sonication probe (VCX 750, Sonics & Materials, Inc., Newtown, CT). […] The serial dilutions for analysis also included the preparation of 4–5 QC samples at a low range point and a high range point (generally 10 ng/mL and 100 ng/mL, respectively). Once the standard curve dilutions were prepared, a 100 μL aliquot was removed and extracted with 200 μL acetonitrile. The extracted samples were centrifuged at 10,000 rpm for 10 min and the supernatant was removed for analysis by LC-MS/MS. Sample drug concentrations were first interpolated from the standard curve, then multiplied by a factor of 6 to account for the drug levels present in the liver prior to dilution with water for homogenization.
Chromatography was performed using a Surveyor pump (Thermo Scientific, Waltham, MA) with Waters XTerra MS C18 50 mm × 2.1 mm id, 3.5 μm particle size columns (Waters Corp., Milford, MA). Mobile phase consisted of a water/0.1% formic acid (Solvent A)/acetonitrile/0.1% formic acid (Solvent B) gradient. […] Flow rate was 300 μL/min. Samples were injected using an HTC PAL autosampler (LEAP Technologies, Carrboro, NC). Tandem mass spectrometry was performed using a TSQ Quantum AM (Thermo Scientific).
Drug concentrations were generated for each sample taken from animals dosed with both test drugs. A measured plasma and liver drug concentration vs. time curve was produced, in graphic and tabular form, for each subject on both linear/linear and log/linear scales, for the parent compound. Mean plasma drug concentration vs. time curves were also prepared separately. For the determination of initial approach to PK parameters of TQ and PQ in plasma and liver tissues after systemic application, a non-compartmental analysis was performed using Phoenix (version 6.1; Pharsight Corp., Mountain View, CA). Maximum plasma and liver concentration (Cmax), and time to maximum concentration (tmax) of TQ and PQ were obtained from the plasma and liver drug concentration-time curves. The elimination half-life (t1/2) was calculated from In2/kel, which is the elimination rate constant calculated from the log concentration-time plot. The area under the curve (AUC) and the area under the first moment curve (AUMC) were determined by the linear trapezoidal rule with extrapolation to infinity based on the concentration of the last time point divided by the terminal rate constant. Mean clearance rate (CL) was determined by dividing the dose by the AUCinf for intravenous injection for plasma samples. Absolute bioavailability was calculated by taking the dose-corrected area under the curve (AUC) from non-intravenous dosing divided by the AUC derived from intravenous dosing. Mean residence time (MRT) was determined by dividing the area under the first moment curve (AUMC) by AUC. The volume of the central compartment (Vz) and volume of the tissue compartment (Vz/F) were calculated as the product of CL and MRT.

[3] = design: method as in PMID 15378438, PMID 10479159; details: cited from earlier work
[4] = design: method as in PMID 9598455; details: cited from earlier work
[5] = male, ICR, mouse, po, intragastric 20 mg/kg, liver
[6] = male, ICR, mouse, intravenous 5 mg/kg, liver

## COc1cc(C)c2c(Oc3cccc(C(F)(F)F)c3)c(OC)cc(NC(C)CCCN)c2n1 (stereo not shown) [Tafenoquine, tafenoquine]
[1]
  time to complete dissolution: ≤ 30 min
[2]; ICR, mouse, intravenous 5 mg/kg, liver, male mice (head: μg/mL or g), read-out: Cmax
  Cmax: 44800 ± 30000 ng/g
[2]; intragastric 20 mg/kg
  AUCinf ratio (liver/plasma): 48.91 ± 22.67
[2]; intragastric 20 mg/kg, liver
  Cmax: 56.90 ± 26.09 µg/mL
[2]; intravenous 5 mg/kg, 5 mg/kg
  AUCinf ratio (liver/plasma): 87.24 ± 44.29
[2]; intravenous 5 mg/kg, liver (μg · h/mL or g)
  AUClast: 2493.82 ± 1361.10 µg·h/g
[2]; intravenous 5 mg/kg, liver (μg · h/mL or g), 5 mg/kg
  AUCinfininty: 2544.96 ± 1348.03 µg·h/g
[2]; intravenous 5 mg/kg, liver (μg · h/mL or g), listed as TQ, 5 mg/kg
  AUCinfininty: 2544.96 µg·h/g
[2]; male, ICR, mouse, po, intragastric 20 mg/kg
  Kp: 48.9
[2]; male, ICR, mouse, intravenous 5 mg/kg
  Kp: 87.2
[2]; [5]
  MRT: 88.7 ± 13 h
  Tmax: 1.17 ± 0.76 h
  half-life: 75.5 ± 12.1 h
[2]; [6]
  MRT: 66.1 ± 19.2 h
  Tmax: 3.69 ± 2.29 h
  half-life: 70 ± 4.35 h
[2]; male, ICR, mouse, single oral dose 20 mg/kg, liver, read-out: Cmax
  Cmax: 56900 ng/g
[2]; oral, liver
  Cmax of orally dosed TQ, fold higher than PQ in liver tissue: ~7 fold
  elimination half-life of oral TQ, fold longer than oral PQ in the liver: 17.6 fold
[2]; single oral dose 20 mg/kg, liver
  AUCinf: 5391.86 µg·h/g
[3]
  half-life: approximately 14 days

## COc1cc(NC(C)CCCN)c2ncccc2c1 (stereo not shown) [Primaquine, primaquine]
[4]
  dose excreted as unchanged drug in the urine: less than 1%
